Experiment: Thermodynamic dissolution properties from Van't Hoff and Gibbs equations
Format: physicochemical
Source text: The Gibbs and […] equations were used to determine the thermodynamic parameters of dissolution. A mean harmonic temperature of 305.55 K was utilized for the calculations, which were based on a temperature range of 298.15 K to 313.15 K [35]. […] On the other hand, ΔHsolno can be calculated by plotting lnx1 versus 1/T-1/Thm which is called van’t Hoff plot:16 ΔHsolno=-R(∂lnx1/∂(1/T-1/Thm))P 17 ΔGsolno=-RThm×intercept
By solving Eqs. 16 and 17, we can determine the values of the parameters ΔHsolno and ΔGsolno . The standard molar entropy of dissolution, ΔSsolno , can then be calculated using the following equation [40–42]:18 ΔSsolno=ΔHsolno-ΔGsolno/Thm
The relative contributions of entropy and enthalpy to the standard molar Gibbs free energy of dissolution of ACP are explained by Eqs. 17, 18, as shown by the symbols ξH and ξTS , respectively:19 %ξH=ΔHsolno/ΔHsolno+TΔSsolno×100 20 %ξTS=TΔSsolno/ΔHsolno+TΔSsolno×100

[1] = water+[DEA]La w3=0.0000, mean temperature 305.55 K
[2] = water+[DEA]La w3=0.0200, mean temperature 305.55 K
[3] = water+[DEA]La w3=0.0500, mean temperature 305.55 K
[4] = water+[DEA]La w3=0.0700, mean temperature 305.55 K
[5] = water+[DEA]La w3=0.1000, mean temperature 305.55 K
[6] = water+[DEA]La w3=0.1500, mean temperature 305.55 K
[7] = water+[DEA]La w3=0.2000, mean temperature 305.55 K
[8] = water+[MEA]La w3=0.0000, mean temperature 305.55 K
[9] = water+[MEA]La w3=0.0200, mean temperature 305.55 K
[10] = water+[MEA]La w3=0.0500, mean temperature 305.55 K
[11] = water+[MEA]La w3=0.0700, mean temperature 305.55 K
[12] = water+[MEA]La w3=0.1000, mean temperature 305.55 K
[13] = water+[MEA]La w3=0.1500, mean temperature 305.55 K
[14] = water+[MEA]La w3=0.2000, mean temperature 305.55 K
[15] = water+[TEA]La w3=0.0000, mean temperature 305.55 K
[16] = water+[TEA]La w3=0.0200, mean temperature 305.55 K
[17] = water+[TEA]La w3=0.0500, mean temperature 305.55 K
[18] = water+[TEA]La w3=0.0700, mean temperature 305.55 K
[19] = water+[TEA]La w3=0.1000, mean temperature 305.55 K
[20] = water+[TEA]La w3=0.1500, mean temperature 305.55 K
[21] = water+[TEA]La w3=0.2000, mean temperature 305.55 K

In the case of `CC(=O)Nc1ccc(O)cc1` [ACP, Acetaminophen], the “TMΔHsoln∘” value [1] is reported as 9.576 kJ/mol, the “ΔGsoln∘” value [1] is reported as 15.356 kJ/mol and the “ΔHsoln∘” value [1] is reported as 24.933 kJ/mol. The ξH [1] was 72.250%, the ξTS [1] was 27.750% and the “TMΔHsoln∘” value [2] was 6.015 kJ/mol. The “ΔGsoln∘” value [2] was 14.598 kJ/mol, the “ΔHsoln∘” value [2] was 20.612 kJ/mol and the ξH [2] was 77.411%. For the same compound, the ξTS [2] was 22.589%, the “TMΔHsoln∘” value [3] was 0.450 kJ/mol and the “ΔGsoln∘” value [3] was 14.221 kJ/mol. For the same compound, the “ΔHsoln∘” value [3] was 14.671 kJ/mol, the ξH [3] was 97.024% and the ξTS [3] was 2.976%. For the same compound, the “ΔGsoln∘” value [4] was 14.021 kJ/mol, the “ΔHsoln∘” value [4] was 13.237 kJ/mol and the ξH [4] was 94.407%. The ξTS [4] was 5.593%, the “TMΔHsoln∘” value [5] was 2.841 kJ/mol and the “ΔGsoln∘” value [5] was 13.727 kJ/mol. The “ΔHsoln∘” value [5] was 16.569 kJ/mol, the ξH [5] was 85.361% and the ξTS [5] was 14.639%. For the same compound, the “TMΔHsoln∘” value [6] was 0.514 kJ/mol, the “ΔGsoln∘” value [6] was 13.528 kJ/mol and the “ΔHsoln∘” value [6] was 14.041 kJ/mol. The ξH [6] was 96.472%, the ξTS [6] was 3.528% and the “TMΔHsoln∘” value [7] was 1.260 kJ/mol. For the same compound, the “ΔGsoln∘” value [7] was 13.256 kJ/mol, the “ΔHsoln∘” value [7] was 14.515 kJ/mol and the ξH [7] was 92.015%. The ξTS [7] was 7.985%, the “TMΔHsoln∘” value [8] was 9.576 kJ/mol and the “ΔGsoln∘” value [8] was 15.356 kJ/mol. The “ΔHsoln∘” value [8] was 24.933 kJ/mol, the ξH [8] was 72.250% and the ξTS [8] was 27.750%. The “TMΔHsoln∘” value [9] was 4.888 kJ/mol, the “ΔGsoln∘” value [9] was 14.395 kJ/mol and the “ΔHsoln∘” value [9] was 19.284 kJ/mol. The ξH [9] was 79.777%, the ξTS [9] was 20.223% and the “ΔGsoln∘” value [10] was 14.122 kJ/mol. For the same compound, the “ΔHsoln∘” value [10] was 13.991 kJ/mol, the ξH [10] was 99.076% and the ξTS [10] was 0.924%. For the same compound, the “ΔGsoln∘” value [11] was 13.714 kJ/mol, the “ΔHsoln∘” value [11] was 12.336 kJ/mol and the ξH [11] was 89.953%. For the same compound, the ξTS [11] was 10.047%, the “ΔGsoln∘” value [12] was 13.447 kJ/mol and the “ΔHsoln∘” value [12] was 13.299 kJ/mol. The ξH [12] was 98.898%, the ξTS [12] was 1.102% and the “TMΔHsoln∘” value [13] was 1.931 kJ/mol. For the same compound, the “ΔGsoln∘” value [13] was 13.074 kJ/mol, the “ΔHsoln∘” value [13] was 15.005 kJ/mol and the ξH [13] was 88.600%. The ξTS [13] was 11.400%, the “TMΔHsoln∘” value [14] was 1.225 kJ/mol and the “ΔGsoln∘” value [14] was 12.831 kJ/mol. The “ΔHsoln∘” value [14] was 14.056 kJ/mol, the ξH [14] was 91.982% and the ξTS [14] was 8.018%. For the same compound, the “TMΔHsoln∘” value [15] was 9.576 kJ/mol, the “ΔGsoln∘” value [15] was 15.356 kJ/mol and the “ΔHsoln∘” value [15] was 24.933 kJ/mol. The ξH [15] was 72.250%, the ξTS [15] was 27.750% and the “TMΔHsoln∘” value [16] was 6.937 kJ/mol. For the same compound, the “ΔGsoln∘” value [16] was 14.994 kJ/mol, the “ΔHsoln∘” value [16] was 21.931 kJ/mol and the ξH [16] was 75.970%. For the same compound, the ξTS [16] was 24.030%, the “TMΔHsoln∘” value [17] was 0.819 kJ/mol and the “ΔGsoln∘” value [17] was 14.716 kJ/mol. For the same compound, the “ΔHsoln∘” value [17] was 15.535 kJ/mol, the ξH [17] was 94.992% and the ξTS [17] was 5.008%. For the same compound, the “TMΔHsoln∘” value [18] was 0.198 kJ/mol, the “ΔGsoln∘” value [18] was 14.402 kJ/mol and the “ΔHsoln∘” value [18] was 14.600 kJ/mol. For the same compound, the ξH [18] was 98.659%, the ξTS [18] was 1.341% and the “TMΔHsoln∘” value [19] was 3.253 kJ/mol. For the same compound, the “ΔGsoln∘” value [19] was 14.131 kJ/mol, the “ΔHsoln∘” value [19] was 17.384 kJ/mol and the ξH [19] was 84.235%. For the same compound, the ξTS [19] was 15.765%, the “TMΔHsoln∘” value [20] was 1.400 kJ/mol and the “ΔGsoln∘” value [20] was 13.713 kJ/mol. For the same compound, the “ΔHsoln∘” value [20] was 15.113 kJ/mol, the ξH [20] was 91.522% and the ξTS [20] was 8.478%. For the same compound, the “TMΔHsoln∘” value [21] was 1.793 kJ/mol, the “ΔGsoln∘” value [21] was 13.449 kJ/mol and the “ΔHsoln∘” value [21] was 15.242 kJ/mol. The ξH [21] was 89.476% and the ξTS [21] was 10.524%.
